The source of these data is ChEMBL document CHEMBL1201862, “PubChem BioAssay data set” (2004).

One assay addresses Large T antigen (Simian virus 40, UniProt P03070). In kind it is functional, Betapolyomavirus macacae.
The target in assay [1] is Dual specificity tyrosine-phosphorylation-regulated kinase 1A (Rattus norvegicus, UniProt Q63470). In kind it is biochemical, Homo sapiens.
Assay [2] deals with T1, Histone-lysine N-methyltransferase NSD2 (Homo sapiens, UniProt O96028).
T1 sequence (O96028 whole entry): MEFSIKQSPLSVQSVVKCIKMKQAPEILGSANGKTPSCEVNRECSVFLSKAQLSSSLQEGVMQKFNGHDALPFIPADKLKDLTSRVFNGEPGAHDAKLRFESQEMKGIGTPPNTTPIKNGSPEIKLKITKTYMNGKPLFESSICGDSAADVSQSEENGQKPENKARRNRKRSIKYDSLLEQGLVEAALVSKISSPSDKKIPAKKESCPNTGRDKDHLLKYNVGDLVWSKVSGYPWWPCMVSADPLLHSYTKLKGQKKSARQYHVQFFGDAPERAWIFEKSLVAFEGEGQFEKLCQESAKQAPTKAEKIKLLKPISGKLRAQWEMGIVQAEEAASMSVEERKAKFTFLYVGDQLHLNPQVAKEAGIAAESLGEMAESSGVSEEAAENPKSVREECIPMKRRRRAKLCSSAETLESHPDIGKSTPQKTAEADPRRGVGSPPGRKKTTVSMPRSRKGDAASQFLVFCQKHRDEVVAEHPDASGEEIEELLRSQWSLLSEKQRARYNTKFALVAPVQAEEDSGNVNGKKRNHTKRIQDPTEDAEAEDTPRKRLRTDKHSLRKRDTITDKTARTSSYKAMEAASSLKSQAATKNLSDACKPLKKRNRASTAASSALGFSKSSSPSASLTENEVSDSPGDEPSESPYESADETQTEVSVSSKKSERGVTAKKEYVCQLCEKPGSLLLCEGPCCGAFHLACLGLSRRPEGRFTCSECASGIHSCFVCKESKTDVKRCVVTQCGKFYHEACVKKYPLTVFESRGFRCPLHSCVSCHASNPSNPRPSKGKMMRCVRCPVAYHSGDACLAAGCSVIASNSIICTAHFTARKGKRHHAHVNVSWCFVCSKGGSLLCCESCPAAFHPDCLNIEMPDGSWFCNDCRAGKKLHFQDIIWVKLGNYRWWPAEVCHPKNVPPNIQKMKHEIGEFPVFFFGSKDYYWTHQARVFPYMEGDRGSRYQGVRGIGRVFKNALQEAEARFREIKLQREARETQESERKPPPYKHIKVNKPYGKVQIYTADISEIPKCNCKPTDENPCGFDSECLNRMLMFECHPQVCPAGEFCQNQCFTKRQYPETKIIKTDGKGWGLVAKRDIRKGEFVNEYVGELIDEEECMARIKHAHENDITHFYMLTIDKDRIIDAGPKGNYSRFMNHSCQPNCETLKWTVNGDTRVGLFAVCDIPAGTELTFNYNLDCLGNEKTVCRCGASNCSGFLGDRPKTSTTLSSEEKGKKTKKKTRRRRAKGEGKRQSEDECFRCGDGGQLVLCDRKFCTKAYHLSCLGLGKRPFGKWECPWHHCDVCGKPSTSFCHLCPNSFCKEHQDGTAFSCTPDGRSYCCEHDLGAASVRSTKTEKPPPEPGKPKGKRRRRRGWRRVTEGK
In kind it is biochemical.

Another assay addresses T2, Caspase-6 (Homo sapiens, UniProt P55212).
T2 sequence (P55212 whole entry): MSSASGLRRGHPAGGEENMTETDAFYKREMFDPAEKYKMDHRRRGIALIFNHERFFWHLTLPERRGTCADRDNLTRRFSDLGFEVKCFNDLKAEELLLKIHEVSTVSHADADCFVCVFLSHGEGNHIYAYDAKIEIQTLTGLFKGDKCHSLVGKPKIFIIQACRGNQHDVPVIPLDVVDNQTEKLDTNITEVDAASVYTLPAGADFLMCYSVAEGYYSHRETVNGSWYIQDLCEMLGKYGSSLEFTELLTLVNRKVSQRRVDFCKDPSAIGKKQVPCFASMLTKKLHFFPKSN
The assay is described as follows: human caspase-6 inhibitors, dose response, biochemical, VEID-R110 fluorescence, cherry-pick (AID 720632).

In assay [3] the target is Voltage-dependent T-type calcium channel subunit alpha-1H (Homo sapiens, UniProt O95180). In kind it is functional.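 Further: channel activity triggered by adding a high calcium stimulation buffer.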
The nature of assay [4]: inhibitors of firefly luciferase expression or activity, dose response, H4 neuroglioma cells, luminescence (AID 1990). In kind it is functional, cell-based.
The nature of assay [5]: Luminescence Cell-Based Dose Response HTS to Identify Inhibitors of 5'UTR Stem-Loop Driven Prion Protein mRNA Translation in H4 Neuroglioblastoma Cells. [Related pubchem assays: 1827 (Project Summary), 1813 (Primary HTS)]. In kind it is functional.
The target of another assay is Cytochrome P450 2D6 (Homo sapiens, UniProt P10635). The assay is described as follows: qHTS Assay for Inhibitors and Substrates of Cytochrome P450 2D6. [Related pubchem assays: 410 ]. In kind it is ADME. The following applies: read-out: Potency. In general terms: qHTS replaces the single test concentration by a dilution series.
The nature of assay [6]: inhibitors of SNCA 5'UTR-driven reporter translation, confirmation, H4 neuroglioma cells, luminescence (AID 1988). It counts as functional, cell-based.
Assay [7] is described as follows: HEp-2 cell cytotoxicity, dose response, cytotoxicity control for RSV inhibitor project, HTS (AID 2410). It counts as functional. The following applies: human respiratory syncytial virus.
Assay [8] is described as follows: HEK293T cytotoxicity, dose response, cytotoxicity control for miR-122 modulator project, cell-based, inhibitor set, cherry-pick, set 2 (AID 720697). It counts as functional.
The target of assay [9] is Luciferin 4-monooxygenase (Photinus pyralis, UniProt P08659). The assay is described as follows: firefly luciferase enzyme inhibitors, dose response, biochemical, luminescence (AID 1891).
Assay [10] in a line: Luminescence Cell-Based Dose Confirmation HTS to Identify Inhibitors of Platelet Dense Granule Release. [Related pubchem assays: 1663 (Primary HTS), 1678 (Summary of Project)]. It counts as functional.
In another assay the target is T3, Aminopeptidase N (Plasmodium falciparum FcB1/Columbia, UniProt O96935).
T3 sequence (O96935 whole entry): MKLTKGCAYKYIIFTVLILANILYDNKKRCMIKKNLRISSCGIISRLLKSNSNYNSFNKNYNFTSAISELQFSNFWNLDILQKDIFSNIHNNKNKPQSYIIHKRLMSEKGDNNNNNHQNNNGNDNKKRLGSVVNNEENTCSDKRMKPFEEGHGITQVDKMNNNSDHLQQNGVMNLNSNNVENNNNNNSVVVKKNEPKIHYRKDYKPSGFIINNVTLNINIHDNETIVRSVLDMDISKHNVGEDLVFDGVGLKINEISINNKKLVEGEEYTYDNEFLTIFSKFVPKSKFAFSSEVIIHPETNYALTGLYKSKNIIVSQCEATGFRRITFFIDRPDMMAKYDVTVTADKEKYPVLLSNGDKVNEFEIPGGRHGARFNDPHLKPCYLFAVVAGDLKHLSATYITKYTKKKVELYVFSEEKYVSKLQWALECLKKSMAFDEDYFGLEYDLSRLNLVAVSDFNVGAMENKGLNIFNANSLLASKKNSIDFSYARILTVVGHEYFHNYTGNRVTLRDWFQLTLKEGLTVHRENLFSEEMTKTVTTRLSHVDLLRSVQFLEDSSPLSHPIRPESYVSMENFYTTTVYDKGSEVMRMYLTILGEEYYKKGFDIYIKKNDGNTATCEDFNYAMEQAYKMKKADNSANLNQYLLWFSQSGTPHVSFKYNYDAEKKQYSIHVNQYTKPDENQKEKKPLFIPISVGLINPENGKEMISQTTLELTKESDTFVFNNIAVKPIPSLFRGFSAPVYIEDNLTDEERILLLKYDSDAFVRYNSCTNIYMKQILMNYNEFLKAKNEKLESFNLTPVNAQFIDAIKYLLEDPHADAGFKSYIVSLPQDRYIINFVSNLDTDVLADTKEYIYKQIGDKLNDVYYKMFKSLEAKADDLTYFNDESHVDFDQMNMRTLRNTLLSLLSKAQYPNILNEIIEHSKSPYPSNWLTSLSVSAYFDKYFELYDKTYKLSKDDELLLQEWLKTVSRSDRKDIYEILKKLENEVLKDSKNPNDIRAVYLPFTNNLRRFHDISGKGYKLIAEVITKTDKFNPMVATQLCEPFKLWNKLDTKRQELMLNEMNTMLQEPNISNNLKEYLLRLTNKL
As to the kind of experiment: P. falciparum M1AAP inhibitors, biochemical, fluorogenic H-Leu-NHMec substrate, 1536-well (AID 1445). Further details: species or system Plasmodium falciparum 3D7, 3D7.

The target in a further assay is T4, Leucine aminopeptidase (Plasmodium falciparum 3D7, UniProt Q8IL11).
T4 sequence (Q8IL11 whole entry): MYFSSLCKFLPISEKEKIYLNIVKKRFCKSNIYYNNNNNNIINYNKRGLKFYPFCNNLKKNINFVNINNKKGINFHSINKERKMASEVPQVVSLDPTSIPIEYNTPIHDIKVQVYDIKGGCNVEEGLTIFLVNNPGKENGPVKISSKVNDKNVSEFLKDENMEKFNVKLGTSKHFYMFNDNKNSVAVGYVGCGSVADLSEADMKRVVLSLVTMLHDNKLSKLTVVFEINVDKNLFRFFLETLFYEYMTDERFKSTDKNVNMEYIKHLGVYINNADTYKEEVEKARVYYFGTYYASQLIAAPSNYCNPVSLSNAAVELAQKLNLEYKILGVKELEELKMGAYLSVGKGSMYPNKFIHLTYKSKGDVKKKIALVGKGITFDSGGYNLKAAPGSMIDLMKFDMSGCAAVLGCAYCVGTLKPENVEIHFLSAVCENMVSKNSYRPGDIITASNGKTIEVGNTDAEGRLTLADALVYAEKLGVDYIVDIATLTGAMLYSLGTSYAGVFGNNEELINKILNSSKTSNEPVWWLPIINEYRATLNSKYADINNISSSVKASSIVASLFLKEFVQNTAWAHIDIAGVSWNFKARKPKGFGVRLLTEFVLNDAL
The assay is described as follows: P. falciparum M17LAP inhibitors, primary screen, biochemical, fluorogenic H-Leu-NHMec substrate, 1536-well (AID 1619). In kind it is functional.

The target of assay [11] is FAD-linked sulfhydryl oxidase ALR (Homo sapiens, UniProt P55789). The assay is described as follows: inhibitors of human ALR sulfhydryl oxidase, dose response, biochemical, H2O2 detection, luminescence, cherry-pick (AID 493248).
A further assay addresses Cytochrome P450 3A4 (Homo sapiens, UniProt P08684). The following applies: Potency.

Activity calls are given as the source filed them.

Sequence of Voltage-dependent T-type calcium channel subunit alpha-1H (O95180 whole entry): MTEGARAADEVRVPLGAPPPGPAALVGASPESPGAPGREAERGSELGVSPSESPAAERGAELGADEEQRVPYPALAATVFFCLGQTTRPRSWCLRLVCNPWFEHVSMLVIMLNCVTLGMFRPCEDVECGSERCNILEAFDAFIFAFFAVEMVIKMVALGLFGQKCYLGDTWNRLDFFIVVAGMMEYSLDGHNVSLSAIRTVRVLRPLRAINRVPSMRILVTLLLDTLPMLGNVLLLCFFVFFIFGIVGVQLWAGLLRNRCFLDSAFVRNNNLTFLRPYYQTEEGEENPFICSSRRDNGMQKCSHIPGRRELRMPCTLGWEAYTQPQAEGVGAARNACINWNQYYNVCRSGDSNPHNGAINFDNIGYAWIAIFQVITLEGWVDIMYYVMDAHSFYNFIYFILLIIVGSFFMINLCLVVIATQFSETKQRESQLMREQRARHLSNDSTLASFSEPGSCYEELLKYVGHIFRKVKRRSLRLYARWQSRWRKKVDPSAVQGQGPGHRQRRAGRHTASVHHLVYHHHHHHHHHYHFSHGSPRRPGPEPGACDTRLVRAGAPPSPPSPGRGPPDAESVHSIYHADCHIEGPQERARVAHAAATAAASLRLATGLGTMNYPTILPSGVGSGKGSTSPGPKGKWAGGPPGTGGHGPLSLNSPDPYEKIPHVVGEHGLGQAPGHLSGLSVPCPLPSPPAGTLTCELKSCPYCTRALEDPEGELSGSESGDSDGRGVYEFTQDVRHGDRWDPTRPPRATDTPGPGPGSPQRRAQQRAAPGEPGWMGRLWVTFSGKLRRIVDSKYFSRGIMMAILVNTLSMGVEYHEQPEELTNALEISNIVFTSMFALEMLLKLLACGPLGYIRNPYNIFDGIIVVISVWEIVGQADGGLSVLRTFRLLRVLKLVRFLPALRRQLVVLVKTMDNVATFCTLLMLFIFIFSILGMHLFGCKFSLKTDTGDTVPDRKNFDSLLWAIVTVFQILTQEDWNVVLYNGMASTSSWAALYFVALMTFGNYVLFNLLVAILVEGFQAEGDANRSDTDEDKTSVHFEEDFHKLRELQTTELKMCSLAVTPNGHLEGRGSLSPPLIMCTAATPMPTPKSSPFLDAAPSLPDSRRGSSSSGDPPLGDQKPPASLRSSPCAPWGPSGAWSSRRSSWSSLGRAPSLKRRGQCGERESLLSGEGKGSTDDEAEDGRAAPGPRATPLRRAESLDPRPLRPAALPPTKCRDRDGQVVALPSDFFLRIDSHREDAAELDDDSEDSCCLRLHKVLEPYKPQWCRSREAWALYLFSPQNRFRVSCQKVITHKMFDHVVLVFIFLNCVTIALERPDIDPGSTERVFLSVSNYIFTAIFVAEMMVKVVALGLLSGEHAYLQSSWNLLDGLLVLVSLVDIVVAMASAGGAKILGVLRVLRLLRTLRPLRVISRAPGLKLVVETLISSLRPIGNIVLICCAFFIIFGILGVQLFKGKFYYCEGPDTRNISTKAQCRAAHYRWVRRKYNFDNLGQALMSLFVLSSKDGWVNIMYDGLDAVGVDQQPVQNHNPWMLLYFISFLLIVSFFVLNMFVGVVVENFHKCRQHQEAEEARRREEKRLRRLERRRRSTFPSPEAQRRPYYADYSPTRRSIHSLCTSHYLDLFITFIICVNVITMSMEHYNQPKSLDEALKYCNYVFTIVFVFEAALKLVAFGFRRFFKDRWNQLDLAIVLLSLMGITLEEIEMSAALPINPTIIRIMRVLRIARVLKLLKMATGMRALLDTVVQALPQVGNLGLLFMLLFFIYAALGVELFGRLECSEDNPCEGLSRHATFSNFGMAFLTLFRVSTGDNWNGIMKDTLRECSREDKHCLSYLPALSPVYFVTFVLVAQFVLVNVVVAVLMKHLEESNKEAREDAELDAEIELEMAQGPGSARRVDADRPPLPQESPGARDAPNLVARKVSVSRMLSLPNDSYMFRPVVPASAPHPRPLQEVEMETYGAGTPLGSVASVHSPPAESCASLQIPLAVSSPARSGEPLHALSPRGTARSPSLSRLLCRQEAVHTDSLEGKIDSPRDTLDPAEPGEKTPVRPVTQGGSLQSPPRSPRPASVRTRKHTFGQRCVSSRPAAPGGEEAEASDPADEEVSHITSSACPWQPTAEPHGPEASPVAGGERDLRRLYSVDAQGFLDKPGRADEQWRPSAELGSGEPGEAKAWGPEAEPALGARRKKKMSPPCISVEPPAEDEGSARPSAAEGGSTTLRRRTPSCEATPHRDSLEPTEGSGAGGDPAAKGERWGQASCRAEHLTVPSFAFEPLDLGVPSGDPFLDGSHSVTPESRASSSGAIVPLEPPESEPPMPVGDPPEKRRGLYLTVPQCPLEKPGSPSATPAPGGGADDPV
Sequence of Cytochrome P450 2D6 (P10635 whole entry): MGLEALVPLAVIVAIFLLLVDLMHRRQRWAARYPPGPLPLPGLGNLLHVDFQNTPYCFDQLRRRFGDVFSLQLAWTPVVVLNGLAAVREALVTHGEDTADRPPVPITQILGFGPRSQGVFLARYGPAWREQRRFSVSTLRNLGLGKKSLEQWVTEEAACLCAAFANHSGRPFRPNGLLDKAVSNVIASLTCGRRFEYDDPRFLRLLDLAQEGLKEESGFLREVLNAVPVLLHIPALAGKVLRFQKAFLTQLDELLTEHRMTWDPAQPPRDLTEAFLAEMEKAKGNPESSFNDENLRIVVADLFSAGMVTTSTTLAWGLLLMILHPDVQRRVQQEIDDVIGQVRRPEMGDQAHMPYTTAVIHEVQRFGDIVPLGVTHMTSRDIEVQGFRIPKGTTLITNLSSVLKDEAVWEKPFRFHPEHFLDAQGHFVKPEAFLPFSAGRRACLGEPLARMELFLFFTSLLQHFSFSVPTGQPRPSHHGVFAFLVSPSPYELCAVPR
Sequence of Luciferin 4-monooxygenase (P08659 whole entry): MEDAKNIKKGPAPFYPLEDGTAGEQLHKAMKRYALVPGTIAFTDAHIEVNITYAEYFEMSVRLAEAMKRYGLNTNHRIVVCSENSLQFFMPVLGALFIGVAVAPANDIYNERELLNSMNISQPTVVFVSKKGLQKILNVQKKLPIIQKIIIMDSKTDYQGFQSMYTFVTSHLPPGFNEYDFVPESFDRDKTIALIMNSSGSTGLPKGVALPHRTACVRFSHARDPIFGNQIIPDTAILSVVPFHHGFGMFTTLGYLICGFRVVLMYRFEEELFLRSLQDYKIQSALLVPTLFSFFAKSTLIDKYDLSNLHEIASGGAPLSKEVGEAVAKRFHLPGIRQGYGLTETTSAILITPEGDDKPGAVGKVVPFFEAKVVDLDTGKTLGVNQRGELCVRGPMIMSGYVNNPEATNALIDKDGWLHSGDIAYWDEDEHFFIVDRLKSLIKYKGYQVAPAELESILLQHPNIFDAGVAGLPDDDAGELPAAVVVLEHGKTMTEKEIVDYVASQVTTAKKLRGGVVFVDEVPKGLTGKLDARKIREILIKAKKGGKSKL
Sequence of Large T antigen (P03070 whole entry): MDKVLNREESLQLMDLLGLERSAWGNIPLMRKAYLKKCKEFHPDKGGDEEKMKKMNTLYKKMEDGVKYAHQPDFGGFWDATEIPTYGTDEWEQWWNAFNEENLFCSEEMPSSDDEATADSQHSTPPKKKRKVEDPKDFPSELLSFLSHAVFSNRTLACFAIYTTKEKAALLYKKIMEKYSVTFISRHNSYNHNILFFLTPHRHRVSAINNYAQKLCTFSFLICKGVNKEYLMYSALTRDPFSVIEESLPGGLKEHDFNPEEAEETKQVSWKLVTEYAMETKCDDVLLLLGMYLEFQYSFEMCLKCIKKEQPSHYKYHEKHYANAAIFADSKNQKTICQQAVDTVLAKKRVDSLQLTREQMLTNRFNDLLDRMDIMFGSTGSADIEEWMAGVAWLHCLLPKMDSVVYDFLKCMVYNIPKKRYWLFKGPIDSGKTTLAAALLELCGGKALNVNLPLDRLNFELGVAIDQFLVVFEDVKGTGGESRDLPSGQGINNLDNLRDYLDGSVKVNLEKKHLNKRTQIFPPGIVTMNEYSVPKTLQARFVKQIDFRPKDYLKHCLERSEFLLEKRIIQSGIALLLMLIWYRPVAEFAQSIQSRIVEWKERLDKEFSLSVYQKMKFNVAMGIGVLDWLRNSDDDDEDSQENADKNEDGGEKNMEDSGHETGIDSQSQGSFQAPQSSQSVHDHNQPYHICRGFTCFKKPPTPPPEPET
Sequence of FAD-linked sulfhydryl oxidase ALR (P55789 whole entry): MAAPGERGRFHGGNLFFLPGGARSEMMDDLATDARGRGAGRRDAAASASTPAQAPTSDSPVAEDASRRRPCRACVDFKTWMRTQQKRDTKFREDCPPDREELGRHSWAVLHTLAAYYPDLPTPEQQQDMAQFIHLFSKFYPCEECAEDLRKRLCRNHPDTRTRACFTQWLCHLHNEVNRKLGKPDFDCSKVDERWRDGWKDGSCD
Sequence of Cytochrome P450 3A4 (P08684 whole entry): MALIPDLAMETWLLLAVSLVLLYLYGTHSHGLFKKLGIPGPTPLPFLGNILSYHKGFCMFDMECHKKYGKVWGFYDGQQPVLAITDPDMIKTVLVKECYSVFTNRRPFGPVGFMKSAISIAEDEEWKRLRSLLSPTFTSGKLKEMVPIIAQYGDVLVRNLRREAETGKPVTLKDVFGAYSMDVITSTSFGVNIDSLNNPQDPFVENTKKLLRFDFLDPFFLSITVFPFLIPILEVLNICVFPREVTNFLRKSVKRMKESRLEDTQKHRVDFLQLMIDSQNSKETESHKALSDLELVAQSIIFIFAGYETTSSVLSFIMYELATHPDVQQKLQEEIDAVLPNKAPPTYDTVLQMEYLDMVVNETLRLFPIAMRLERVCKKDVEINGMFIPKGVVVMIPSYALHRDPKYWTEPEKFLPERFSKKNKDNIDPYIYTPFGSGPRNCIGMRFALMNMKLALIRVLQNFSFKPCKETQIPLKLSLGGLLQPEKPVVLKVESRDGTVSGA

The term IC50 denotes the concentration that gives 50% inhibition. Take `N#C/C(=C/c1ccc(O)c(O)c1)c1nc2ccccc2[nH]1`: at Large T antigen, the half-maximal inhibitory concentration (IC50) was 12.3 µM (active). In addition, the results for the AC50 in [1] and in assay [2] were 2.06 µM (active) and 2.05 µM (active), respectively.
Regarding `O=C(O)CCN1CC2([N+](=O)[O-])C=CC(=O)C([N+](=O)[O-])(C1)C2CC(=O)c1ccccc1` (stereo unspecified), the AC50 on Caspase-6 is 15.7 µM (active).
For orientation: EC50 means the concentration needed to bring the measured effect to its halfway point. Take `O=C(Nc1ccccc1Cl)c1cc(S(=O)(=O)N2CCCCC2)ccc1N1CCOCC1`: in assay [3], the concentration for a half-maximal effect (EC50) is 5.14 µM (active).
Take `Cc1c(O)c(=O)ccn1Cc1ccccc1`: the results for the 50% effective concentration (EC50) in [4], in assay [5] and in assay [6] were 11.3 µM (active), 3.71 µM (active) and > 120 µM (not active), respectively. Moreover, on Cytochrome P450 2D6, the AC50 is 3.16 µM (inconclusive).
As a reminder, the CC50 is the concentration at which the toxic effect on the cells reaches its halfway point. As for `CCn1cc(C(=O)NCc2cccc(F)c2)c(=O)c2cc(F)c(N3CCN(C(=O)c4ccco4)CC3)cc21`, the cytotoxic concentration (CC50) in [7] is > 50 µM (active). For the same molecule, in “cells”, the IC50 is 48.9 µM (active).
Regarding `COC(=O)c1cc(NS(=O)(=O)c2ccc3c(c2)CCC(=O)N3)cc(C(=O)OC)c1`, the AC50 in assay [8] is 3.3 µM (active).
With `COc1cc(OC)c(NC(=O)CS(=O)(=O)Cc2nc(-c3ccc(C)cc3)oc2C)cc1Cl`, the 50% effective concentration (EC50) in [3] was 5.56 µM (active).
In the case of `O=c1cc(-c2ccc(O)c(O)c2)oc2c(C3O[C@H](CO)[C@@H](O)[C@H](O)[C@H]3O)c(O)cc(O)c12` (stereo partly specified), the IC50 was 3.15 µM (active) at Large T antigen and 18 µM (active) in the assay “cells”.
In the case of `CCn1c(C(=O)N2CCC(C(=O)NCCCSC3CCCCC3)CC2)cc2sccc21`, the EC50 in assay [9] was 25 µM (active); in assay [10], > 112 µM (not active); in [3], 3.51 µM (active).
Regarding `COc1ccc(OC)c(CNC(=O)c2coc(=O)c3ccccc23)c1`, in [7], the CC50 is 37.8 µM (active). Further, the EC50 in assay [9] was > 112 µM (not active); in assay [10], 19.5 µM (active). For the same molecule, the IC50 in “cells” was 29.3 µM (active).
With `CCCCCSc1cc(OC)c(CCNC)cc1OC`, the AC50 in assay [2] was 17.5 µM (active).
In the case of `Cc1cc(C)cc(-n2nnc(C(=O)NCc3ccc4c(c3)OCO4)c2N)c1`, in [3], the EC50 is 2.39 µM (active).
For `CCOC(=O)CC1C(=O)NCCN1c1nc2ccc(C)cn2c(=O)c1/C=C1\SC(=S)N(C(C)CC)C1=O` (stereo unspecified), the CC50 in assay [7] was 13.3 µM (active). Further, at Aminopeptidase N, the IC50 is 49.8 µM (active).
As for `CCOc1cc(/C=C(/C#N)c2nc3ccccc3[nH]2)ccc1OCc1ccc(C(=O)O)o1`, the half-inhibitory concentration (IC50) at Leucine aminopeptidase was 9.14 µM (active); at Aminopeptidase N, 60.8 µM (active).
For `OCC1(CCOc2ccccc2)CCN(Cc2cccn2-c2ncccn2)CC1`, the cytotoxic concentration (CC50) in assay [7] is > 50 µM (active). Further, the IC50 in the assay “cells” was 17.9 µM (active).
Turning to `Cc1ccc2[nH]c(-c3cccc(N)c3)cc2c1`, the CC50 in assay [7] is > 50 µM (active). The AC50 in assay [11] is 13.2 µM (active). Also, the half-inhibitory concentration (IC50) in the assay “cells” is 41.4 µM (active).
Consider `O=c1c(O)c(-c2cccc(O)c2)oc2ccccc12`, for which, at Cytochrome P450 2D6, the AC50 is 25.1 µM (inconclusive).
Regarding `Cc1nc2ccccn2c(=O)c1CCN1CCC(C(=O)c2ccc(F)cc2)CC1` [PIRENPERONE], the AC50 at Cytochrome P450 2D6 is 7.94 µM (inconclusive); on Cytochrome P450 3A4 it was 20 µM (inconclusive).
